Measured values as given in publication PMC6328587 (Nature Communications, 2019).

What was measured:
[1] = biological target: T1, p38α:PROTAC:VHL ternary complex (Homo sapiens, UniProt P40337+Q16539); assay: In vitro ternary complex pull-down, GST-VBC bait, purified p38α; type: binding; conditions: all concentrations tested
T1 construct: The plasmid contains an N-terminal His6 tag and encodes a region spanning amino acids 2–360 of the human p38α kinase; made in house; host or cells: E. coli BL21-CodonPlus(DE3)-RIPL (p38α); E. coli BL21(DE3) (GST-VBC)
Description: Glutathione Sepharose 4B (Glutathione-conjugated beads in a slurry containing 20% ethanol) were washed twice with 1X wash buffer (50 mM HEPES pH 7.5, 150 mM NaCl, 1 mM DTT, 0.01% NP40, 5 mM MgCl2, 10% Glycerol) and then blocked for 1 h at room temperature with 10% bovine serum albumin (BSA) in wash buffer. The beads were then washed again three times with wash buffer and then purified GST-VBC (stable form of VHL complexed with EloB/EloC, described above) was immobilized for 1 h at 4 °C at 3.6 pmole µL^–1 of beads. The beads were then washed three times with wash buffer, resuspended, divided into two equal volumes, and p38α or p38δ protein was added. The bead:p38 mixture was then aliquoted to separate tubes and PROTAC was added at the indicated concentration (PROTACs were intermediately diluted in 10% DMSO and 0.25% CHAPS). This mixture was incubated at 4 °C for 2 h. The beads were washed three times with 10 column volumes of wash buffer and then eluted with SDS loading buffer at 75 °C for 10 min.

[2] = biological target: T2, VHL:PROTAC:p38α ternary complex (Homo sapiens, UniProt P40337+Q16539); assay: AlphaLISA ternary complex assay; type: binding; conditions: His-p38α and GST-VBC 150 nM, increasing PROTAC
T2 construct: The plasmid contains an N-terminal His6 tag and encodes a region spanning amino acids 2–360 of the human p38α kinase; made in house; host or cells: E. coli BL21-CodonPlus(DE3)-RIPL (p38α); E. coli BL21(DE3) (GST-VBC)
Description: Assays were performed at room temperature and plates sealed with transparent film between addition of reagents to prevent well contamination. All reagents were diluted in 50 mM HEPES pH 7.5, 50 mM NaCl, 69 µM Brij-35, and 0.1 mg mL^−1 BSA. Recombinant GST-VBC was mixed with His6-p38α and PROTAC (diluted one-in-three from 6× stock) to a final volume of 15 μL per well in a OptiPlate-384 well microplate (PerkinElmer) and incubated for 30 min. VBC and p38α were kept at a constant final concentration of 150 nM. In all, 7.5 μL of Anti-6xHis AlphaLISA Acceptor beads (PerkinElmer) were added to each well and plates were incubated for 15 min in the dark. In total, 7.5 μL of Alpha Glutathione Donor beads (PerkinElmer) were added to each well and plates were incubated for 45 min in the dark. Plates were read on a Synergy 2 microplate reader using the Gen5 imager software (BioTek Instruments) with an excitation wavelength of 680 nm and emission wavelength of 615 nm. Intensity values were plotted in Graphpad Prism with PROTAC concentration values represented on a log10 scale.

[3] = test system: JNK2; assay: JNK2 degradation, western blot in MDA-MB-231 cells; type: cell-based, human; conditions: 0.025-2.5 µM
Description: (§1) […] once with ice-cold PBS (1 × ), followed by lysis in buffer containing 25 mM Tris [pH 7.5], 0.25% sodium deoxycholate, 1% Triton X-100, supplemented with 1X protease inhibitor cocktail (Roche), and phosphatase inhibitors (10 mM NaF, 1 mM Na3VO4, and 20 mM β-glycerophosphate), unless otherwise noted. Lysates were spun at 14,000 × g for 10 min at 4 °C and supernatant was evaluated for protein content using a Pierce BCA Protein Assay (ThermoFisher Scientific). In all experiments, 25–50 μg of protein was loaded onto 10% SDS-PAGE gels or 4–20% Criterion TGX precast gradient gels (Bio-Rad), transferred to nitrocellulose membranes, and probed with the specified antibodies overnight at 4 °C in 1X TBS-Tween (Tris-buffered saline plus 0.02% Tween 20) containing 5% non-fat milk. Immunoblots were visualized using a Bio-Rad ChemiDoc imaging instrument and subsequently processed and quantified using the accompanying Bio-Rad ImageLab software. See Supplementary Figure 8 for uncropped scans of western blots shown in the main text figures.
(§2) Supplementary Figure 4 cont.
(§3) Supplementary Figure 4. Characterization of M APK fam ily degradation selectivity (related to Figures 1-2). (a) p38 M APK fam ily m em bers (α, β, δ, γ) were aligned using the T-Coffee multiple sequence alignm ent server. […] Note: JNK1 and JNK2 are expressed as two alternatively-spliced form s. […]

[4] = biological target: T3, p38γ (Homo sapiens, UniProt P53778); assay: p38γ degradation, western blot in MDA-MB-231 cells; type: cell-based; conditions: concentrations up to 2.5 µM
T3 construct: endogenous in cells; host or cells: MDA-MB-231
T3 sequence (P53778 1-367): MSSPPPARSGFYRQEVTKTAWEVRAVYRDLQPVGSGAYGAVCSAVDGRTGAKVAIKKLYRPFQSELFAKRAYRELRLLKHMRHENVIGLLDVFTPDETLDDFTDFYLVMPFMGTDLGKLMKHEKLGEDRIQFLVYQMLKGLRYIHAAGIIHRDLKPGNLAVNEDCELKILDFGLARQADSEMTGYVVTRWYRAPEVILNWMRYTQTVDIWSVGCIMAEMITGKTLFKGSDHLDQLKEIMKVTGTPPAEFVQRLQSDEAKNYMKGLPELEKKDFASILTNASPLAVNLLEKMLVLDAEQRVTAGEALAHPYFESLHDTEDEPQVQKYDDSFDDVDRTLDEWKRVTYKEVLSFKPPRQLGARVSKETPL
Description: as §1, §2, §3

T1 sequence (Q16539 2-360 limits assumed): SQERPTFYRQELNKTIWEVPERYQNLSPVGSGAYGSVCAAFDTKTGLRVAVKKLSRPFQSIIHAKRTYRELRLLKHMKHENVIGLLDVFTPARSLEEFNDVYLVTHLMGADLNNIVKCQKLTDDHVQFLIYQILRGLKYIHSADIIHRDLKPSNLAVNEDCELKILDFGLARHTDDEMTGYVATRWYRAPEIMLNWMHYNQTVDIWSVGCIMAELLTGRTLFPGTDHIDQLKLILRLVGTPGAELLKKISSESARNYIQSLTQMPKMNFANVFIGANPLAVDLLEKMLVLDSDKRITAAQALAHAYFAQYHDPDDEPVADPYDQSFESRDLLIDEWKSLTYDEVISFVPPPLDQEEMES
T1 sequence (P40337 whole entry, the tested form may be a part): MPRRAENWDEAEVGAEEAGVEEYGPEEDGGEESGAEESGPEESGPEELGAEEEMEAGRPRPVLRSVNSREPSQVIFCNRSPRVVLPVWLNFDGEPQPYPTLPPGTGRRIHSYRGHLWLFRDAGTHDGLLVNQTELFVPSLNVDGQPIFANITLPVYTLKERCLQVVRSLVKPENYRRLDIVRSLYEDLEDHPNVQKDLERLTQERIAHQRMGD
T1 sequence (Q15370 whole entry partner, the tested form may be a part): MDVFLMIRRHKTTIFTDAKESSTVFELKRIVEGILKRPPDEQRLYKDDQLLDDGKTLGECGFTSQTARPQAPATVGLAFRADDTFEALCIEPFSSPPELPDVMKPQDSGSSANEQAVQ
T1 sequence (Q15369 whole entry partner, the tested form may be a part): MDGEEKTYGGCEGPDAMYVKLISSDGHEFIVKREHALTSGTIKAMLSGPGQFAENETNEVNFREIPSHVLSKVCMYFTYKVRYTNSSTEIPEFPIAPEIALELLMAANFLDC
T2 sequence (Q16539 2-360 limits assumed): as the sequence (Q16539 2-360 limits assumed) above
T2 sequence (P40337 whole entry, the tested form may be a part): as the sequence (P40337 whole entry, the tested form may be a part) above
T2 sequence (Q15370 whole entry partner, the tested form may be a part): as the sequence (Q15370 whole entry partner, the tested form may be a part) above
T2 sequence (Q15369 whole entry partner, the tested form may be a part): as the sequence (Q15369 whole entry partner, the tested form may be a part) above

Row | Compound | enrichment of purified p38α on GST-VBC bait [1] | p38α:PROTAC:VHL ternary complex formation (AlphaLISA) [2] | JNK2 degradation [3] | p38γ degradation [4]
1 | COc1cc2c(Oc3ccc(NC(=O)C4(C(=O)Nc5ccc(F)cc5)CC4)cc3F)ccnc2cc1OCCCCOCCCCOCC(=O)N[C@H](C(=O)N1C[C@H](O)C[C@H]1C(=O)NCc1ccc(-c2scnc2C)cc1)C(C)(C)C [SJFα] | substantial enrichment | facilitates a VHL:PROTAC:p38α ternary complex | neither PROTAC degrades | does not degrade
2 | COc1cc2c(Oc3ccc(NC(=O)C4(C(=O)Nc5ccc(F)cc5)CC4)cc3F)ccnc2cc1OCCOCCOCCOc1cc(-c2scnc2C)ccc1CNC(=O)[C@@H]1C[C@@H](O)CN1C(=O)[C@H](C(C)C)N1Cc2ccccc2C1=O [SJFδ] | no detectable enrichment | no such ternary species is detectable | neither PROTAC degrades | does not degrade
